Paper PMC7247683, “Molecular Drug Discovery of Single Ginsenoside Compounds as a Potent Bruton’s Tyrosine Kinase Inhibitor” (International Journal of Molecular Sciences, 2020)
Where two headings read alike, the source gives them in different places.

Experiments:
BTK [1] = molecular target: T1, BTK (Homo sapiens, UniProt Q06187); test: Cell-based phosphorylation ELISA, p-BTK/BTK in Ramos cells; details: for BTK inhibitory activity (p-BTK/BTK, ELISA), in words: compared to Ibrutinib or the DMSO-treated group
T1 construct: host or cells: Ramos cells
Text: Although BTK is almost constant in cells, the expression level of p-BTK varies depending on the degree of BTK activation and inhibition, and thus the expression level of p-BTK is based on the expression of BTK (p-BTK/BTK).
When BTK is activated or inhibited, the phosphorylation % of BTK is increased or decreased accordingly, which can be confirmed by the amount of phosphorylated BTK in the cell. After treating the ginsenoside compound on the cells, the amount of BTK inhibition of the ginsenoside compound was compared and analyzed by the amount of phosphorylated BTK in the cell. […] The BTK to GAPDH expression ratio was confirmed.
The Ramos cells (~1 × 10^4) were cultured in 96-well cell culture plates. […] Free DMSO was used as a negative control group. […] The expression level of each p-BTK and the expression level of BTK were compared and analyzed using the ratios (p-BTK/GAPDH and BTK/GAPDH) based on the expression level of each […]. Namely, the p-BTK/BTK ratio means the (p-BTK/GAPDH)/(BTK/GAPDH) ratio, which is simply expressed as p-BTK/BTK.

BTK [2] = molecular target: T1, BTK; test: Western blotting, p-BTK/BTK in Ramos cells; assay type: cell-based; details: α-IgM stimulated, stimulation (α-IgM antibody (+), DMSO) group as reference (100%)
Method: The Ramos cells (~3 × 10^6) were famished of serum for 1 h and treated with ginsenosides for 1 h, and then washed with phosphate-buffered saline (Welgene, Korea), followed by stimulation with 1 μg/mL of goat F(ab’)2 anti-human IgM (Southern Biotech, Birmingham, AL, USA) for 10 min on ice. The cells were then lysed in a radioimmunoprecipitation assay (RIPA) buffer (Sigma-Aldrich, St. Louis, MO, USA) and the proteins were separated by SDS-PAGE (Bio-Rad Laboratories, Hercules, CA, USA) and transferred to polyvinylidene fluoride membranes (EMD Millipore, Billerica, MA, USA). The proteins were detected with anti-BTK Y223 (Cell Signaling Technology, Danvers, MA, USA), anti-BTK (53/BTK, Cell Signaling Technology) and anti-glyceraldehyde 3-phosphate dehydrogenase (anti-GAPDH) (Santa Cruz Biotechnology, Santa Cruz, CA, USA) antibodies. The protein signals were monitored by chemiluminescence using Enhanced ChemiLuminescence (ECL) western blotting detection reagent (EMD Millipore), and the scanned blots were quantified using a Multi-Image analyzer (Fujifilm, Japan). The phosphorylation % of each lane was determined using Multi-Gauge software (Fujifilm). The IC50 value was measured using control α-IgM+ set at 100% and control α-IgM− set at 0%.
The Ramos cells (~3 × 10^6) were cultured in 6-well cell culture plates. Both the control and ginsenoside compounds were dissolved in DMSO. For the Western blotting, the α-IgM- groups and α-IgM+ groups in the presence of DMSO were used as the non-stimulation control and stimulation control, respectively, following by the quantitation of the expression ratio of p-BTK, BTK, and β-tubulin. The expression level of each p-BTK and the expression level of BTK were compared and analyzed using the ratios (p-BTK/β-tubulin and BTK/β-tubulin) based on the expression level of each β-tubulin. Namely, the p-BTK/BTK ratio means the (p-BTK/β-tubulin)/(BTK/β-tubulin) ratio, which is simply expressed as p-BTK/BTK.

[3] = Solubility characterization in RPMI medium (absorbance at 540 nm, transparency); assay type: physicochemical; parameters: key to absorbance at 540 nm increased compared to the control / absorbance at 540 nm decreased compared to the control / absorbance at 540 nm reduced compared to the control: difference in OD at 540 nm vs untreated medium control
Text: In spite of the promising pharmaceutical efficacies of the ginsenoside compounds, the therapeutic potential of ginsenosides is largely restricted by their lowering bioavailability when orally distributed (< 5%) due to their undesirable physicochemical properties, such as low water solubility, low biomembrane permeability, instability in the gastrointestinal fluid, and extensive body metabolism. Depending on the solubility of each candidate substance, the black text under the plate is clearly visible when dissolved well. Since UV/vis absorbance spectra-based turbidimetry has the advantage of being fast and non-destructive in common drug solubility tests, a determination of their turbidity or optical density (OD) in liquid cultures was employed to monitor the water-solubility of the ginsenoside candidates. The λmax of the UV/vis absorbance spectra of the ginsenoside compounds and their Roswell Park Memorial Institute (RPMI) medium were identical at 540 nm, and the difference in OD between the absorbances of the ginsenosides and the media, used only as a control, was plotted (Figure 4). The increased absorbance signals of the PPT and PPD were derived from the increased OD signal of turbidity-based interference by insoluble compounds in the medium. The corresponding UV/vis absorbance results of each candidate substance in the media is discussed as follows:
To determine the concentration of ginsenoside compounds to be treated on the cells, the solubility of each compound in RPMI-1640 medium was evaluated. Specifically, the solubility of each ginsenoside compound was observed by UV/vis absorbance at 540 nm, and the transparency of the medium was measured by the visually observed degree to which the marked black text at the bottom of the plate was visible (transparency of the medium). In addition, the change in absorbance at 540 nm compared to the control was measured by using the medium not treated with the ginsenoside compound as a control.

purified BTK = purified BTK (Homo sapiens, UniProt Q06187); test: FRET-based kinase assay (Z'-LYTE) for BTK inhibition; assay type: biochemical; details: 0.625 μg/mL purified BTK; for BTK inhibitory effect (inhibition %): 25, 50, and 100 μg/mL, depending on the concentration; for IC50: FRET assay
Method: For the identification of the BTK inhibitory activity of ginsenoside-derived candidate substances and the screening of them to show pharmacological efficacy, the BTK-inhibitory activity of ginsenoside compounds and their in vitro BTK inhibitory activity was measured as the inhibition rate (inhibition %) of the decreased phosphorylation rate compared to the BTK activity without ginsenoside treatment in a FRET assay.
In order to evaluate the BTK inhibitory activity of the ginsenoside compound, a kinase assay using a Z’-LYTE Kinase Assay Kit from Thermo Fisher Scientific was performed. A fluorescent microplate reader was used to measure the Fluorescence Resonance Energy Transfer (FRET) between coumarin and fluorescein dyes. The assay was optimized for BTK, as described in the manufacturer’s protocol. The BTK activity (%) was evaluated by measuring the ratio of the emission signal (445 nm/520 nm) according to the phosphorylation % of the substrate by BTK.

[4] = solubility-dependent concentration
[5] = read-out: IC50 levels that inhibited BTK activity

Chain of purified BTK (Q06187 whole entry): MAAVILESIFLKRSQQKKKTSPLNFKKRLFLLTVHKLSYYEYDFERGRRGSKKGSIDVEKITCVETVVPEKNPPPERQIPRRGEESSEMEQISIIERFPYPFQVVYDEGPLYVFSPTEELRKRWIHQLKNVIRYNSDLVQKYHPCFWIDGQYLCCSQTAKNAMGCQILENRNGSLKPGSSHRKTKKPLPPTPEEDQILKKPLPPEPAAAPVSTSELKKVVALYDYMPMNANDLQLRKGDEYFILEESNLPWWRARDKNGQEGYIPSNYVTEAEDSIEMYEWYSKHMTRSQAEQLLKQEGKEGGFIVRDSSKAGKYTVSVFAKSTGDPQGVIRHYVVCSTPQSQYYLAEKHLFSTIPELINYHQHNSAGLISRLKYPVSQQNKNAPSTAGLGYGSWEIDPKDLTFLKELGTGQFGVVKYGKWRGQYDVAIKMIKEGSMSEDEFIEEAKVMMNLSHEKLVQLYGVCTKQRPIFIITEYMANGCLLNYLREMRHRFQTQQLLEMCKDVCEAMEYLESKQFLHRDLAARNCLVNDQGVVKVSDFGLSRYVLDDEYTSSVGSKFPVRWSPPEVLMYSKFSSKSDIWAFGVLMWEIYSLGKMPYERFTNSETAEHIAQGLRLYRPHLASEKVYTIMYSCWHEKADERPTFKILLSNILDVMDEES
T1 sequence (Q06187 whole entry): as above

Structure (SMILES) | BTK inhibitory activity (p-BTK/BTK, ELISA) (BTK [1]; at low concentrations) [%] | BTK inhibitory activity (p-BTK/BTK, ELISA), in words (BTK [1]; [4]) | BTK inhibitory activity (p-BTK/BTK, Western blotting) (BTK [2]) | appearance / solubility in the medium [3] | solubility in the medium, overall [3] | absorbance at 540 nm increased compared to the control ([3]; 0.5 mM) | BTK inhibitory effect (inhibition %) (purified BTK) [%] | IC50 (purified BTK; [5]) [µM] | BTK inhibitory activity (p-BTK/BTK, ELISA) (BTK [1]; [4]) [%] | solubility in the medium, overall ([3]; RPMI medium) | further results
CC(C)=CCC[C@](C)(O)[C@H]1CC[C@]2(C)[C@@H]1[C@H](O)C[C@@H]1[C@@]3(C)CC[C@H](O)C(C)(C)[C@@H]3[C@@H](O)C[C@]12C [PPT, protopanaxatriol] | 15.98 | substantial BTK inhibitory activity | about 30% | intensively turbid | poorly soluble in the medium at higher concentrations | 0.309 | ≥ 70 | 136 |  |  | absorbance at 540 nm increased compared to the control ([3]; 0.8 mM): 0.508; absorbance at 540 nm increased compared to the control ([3]; 1.7 mM): 1.118
CC(C)=CCCC(C)(OC1OC(COC2OCC(O)C(O)C2O)C(O)C(O)C1O)C1CCC2(C)C1C(O)CC1C3(C)CCC(OC4OC(CO)C(O)C(O)C4OC4OC(CO)C(O)C(O)C4O)C(C)(C)C3CCC12C (stereo not drawn) [Rb3] |  | substantial BTK inhibitory activity | ~ 17% |  |  |  | ≥ 70 | 51 | > 23 | soluble in the medium at a high concentration | absorbance at 540 nm increased compared to the control ([3]; 0.9 mM in RPMI medium): 0.047; appearance / solubility in the medium ([3]; 0.9 mM in RPMI medium): transparent; absorbance at 540 nm reduced compared to the control ([3]; 2.7 mM in RPMI medium): 0.004
CC(C)=CCCC(C)(O)C1CCC2(C)C1C(O)CC1C3(C)CCC(OC4OC(CO)C(O)C(O)C4O)C(C)(C)C3CCC12C (stereo not drawn) [Rh2] |  |  |  |  |  |  | ≥ 70 |  |  | soluble in the medium at a low concentration, while insoluble at a high concentration | absorbance at 540 nm increased compared to the control ([3]; 0.4 mM in RPMI medium): 0.037; absorbance at 540 nm increased compared to the control ([3]; 0.6 mM in RPMI medium): 0.111; absorbance at 540 nm increased compared to the control ([3]; 1.2 mM in RPMI medium): 0.271; appearance / solubility in the medium ([3]; 1.2 mM in RPMI medium): slightly soluble; IC50 (purified BTK; IC50 levels that inhibited BTK activity): 61.1 µM
CC(C)=CCCC(C)(O)C1CCC2(C)C1C(O)CC1C3(C)CCC(O)C(C)(C)C3CCC12C (stereo not drawn) [PPD, protopanaxadiol] | 9.58 | substantial BTK inhibitory activity | about 40% | turbid | poorly soluble in the medium at higher concentrations | 0.442 |  |  |  |  | absorbance at 540 nm increased compared to the control ([3]; 0.2 mM): 0.155; absorbance at 540 nm increased compared to the control ([3]; 1 mM): 0.835; absorbance at 540 nm increased compared to the control ([3]; 1.5 mM): 1.153
CC(C)=CCCC(C)(OC1OC(COC2OCC(O)C(O)C2O)C(O)C(O)C1O)C1CCC2(C)C1C(O)CC1C3(C)CCC(OC4OC(CO)C(O)C(O)C4OC4OC(CO)C(O)C(O)C4O)C(C)(C)C3CCC12C (stereo not drawn) [Rb2] |  | substantial BTK inhibitory activity | ~ 17% |  |  |  | ≥ 70 | 9.27 | > 23 | soluble in the medium at a high concentration | absorbance at 540 nm increased compared to the control ([3]; 0.2 mM in RPMI medium): 0.042; appearance / solubility in the medium ([3]; 0.2 mM in RPMI medium): transparent; absorbance at 540 nm decreased compared to the control ([3]; 0.6 mM in RPMI medium): 0.007; absorbance at 540 nm decreased compared to the control ([3]; 1.0 mM in RPMI medium): 0.006
